Source: patent US9034403B2, “Yeast extract containing γ-Glu-X or γ-Glu-X-Gly and a method for producing the same” (AJINOMOTO CO., INC., priority 2010, dated 2015)

System: Saccharomyces cerevisiae S288C strain
Test: Addition of peptide to medium of S288C strain; peptide content in dry cells and in extract by LC-MS/MS
Format: cell-based
Procedure: Absorbance of the obtained culture broth was measured, the culture broth was inoculated into SD medium (400 ml in a 2 L-volume conical flask with baffle fins, a pluratity of flasks) so that OD660 was 0.01 at the start of the culture (absorbance was measured by using DU640 SPECTROPHTOMETER, BECKMAN COULTER), and culture was performed at 30° C. for 19 hours with shaking by rotation at a velocity of 120 rpm. From the obtained culture broth, 400 OD units of the cells (1 OD unit is defined as cells contained in 1 ml of culture broth of which OD660 is 1) were collected by centrifugal separation. The supernatant was removed as much as possible, and the residual cells were suspended in 45 ml of Milli-Q water. The cells were collected again by centrifugal separation, and resuspended in 45 ml of Milli-Q water. By repeating this operation 3 times in total, the medium was completely removed from the cells. The washed cells were suspended in about 1.5 ml of Milli-Q water, and the suspension was heated at 70° C. for 10 minutes. By this step, the extractable components contained in the cells were extracted. Then, the extract and the cell residue were separated by centrifugation.
Cell debris were removed from the extract using a centrifugal filtration membrane of 10 kDa (Amicon Ultra—0.5 mL 10K, MILLIPORE, Catalogue Number UFC501096)), the obtained fraction was derivatized with the AQC reagent in the same manner as that used in Example 1, and γ-Glu-Val-Gly and γ-Glu-Val were measured by LC-MS/MS. Separately, the amount of GSH in the cells was measured in a conventional manner (GSH in the extract was derivatized by using a fluorescence reagent ABD-F that binds to thiol group, separated and quantified by HPLC). Furthermore, dry cell weight was measured after the washed cells were dried at 104° C. for 4 hours. From the amounts of γ-Glu-Val-Gly and γ-Glu-Val in the extract prepared from the cells that was contained in a certain volume of culture broth and dry cell weight measured as described above, the amount of these peptides based on weight of dried cells was calculated. […]
One loop of the S288C strain was inoculated into SD medium (50 ml in a 500 ml-volume Sakaguchi flask), and cultured at 30° C. for 24 hours with shaking at a velocity of 120 rpm. Absorbance of the obtained culture broth was measured, the culture broth was inoculated into SD medium (400 ml in a 2 L-volume conical flask with baffle fins, two or more flasks) so that OD660 was 0.01 at the start of the culture, and culture was performed at 30° C. for 19 hours with shaking by rotation at a velocity of 120 rpm. After 19 hours, γ-Glu-Val-Gly aqueous solutions of various concentrations were added to obtain predetermined concentrations, and the culture was continued for 1 hour. Using these culture broths, the γ-Glu-Val-Gly content in dry cells was calculated in the same manner as in Example 2. Furthermore, the solid content of the extract was calculated, and the amount of γ-Glu-Val-Gly in the solid content was also calculated. […]
The cells were collected from the total culture broth, and washed in the same manner as that of Example 2. The washed cells in an amount of 400 OD units were suspended in 1.5 ml of Milli-Q water. This suspension was maintained at 70° C. for 10 minutes to produce an extract from the yeast cells. Furthermore, the suspension was centrifuged to remove the cell residues and thereby collect only the extract. The γ-Glu-Val-Gly concentration of this extract (extract of addition experiment) was measured to be about 300 ppm, and solid content was about 1%. The γ-Glu-Val-Gly concentration in an extract prepared in the same way but without adding γ-Glu-Val-Gly to the culture broth (extract of no addition experiment) was below the quantitation limit, and solid content was about 1%.
One loop of the S288C strain was inoculated into SD medium (50 ml in a 500 ml-volume Sakaguchi flask), and cultured at 30° C. for 24 hours with shaking at a velocity of 120 rpm. […]

[1] = 0.01 ppm γ-Glu-Val-Gly added to medium after 19 hours, culture continued 1 hour
[2] = 0.1 ppm γ-Glu-Val-Gly added to medium after 19 hours, culture continued 1 hour
[3] = 1 ppm γ-Glu-Val-Gly added to medium after 19 hours, culture continued 1 hour
[4] = 5 ppm γ-Glu-Val-Gly added to medium after 19 hours, culture continued 1 hour
[5] = 10 ppm γ-Glu-Val-Gly added to medium after 19 hours, culture continued 1 hour
[6] = 100 ppm γ-Glu-Val-Gly added to medium after 19 hours, culture continued 1 hour

For `CC(C)[C@H](NC(=O)CC[C@H](N)C(=O)O)C(=O)NCC(=O)O` [γ-Glu-Val-Gly], the “γ-Glu-Val-Gly content in dry cells” value [1] was 5 ppm, the “γ-Glu-Val-Gly content in solid content of extract” value (“γ-Glu-Val-Gly content … of extract” for short) [1] was 21 ppm and the “γ-Glu-Val-Gly content in dry cells” value [2] was 28 ppm. The “γ-Glu-Val-Gly content … of extract” value [2] was 96 ppm, the “γ-Glu-Val-Gly content in dry cells” value [3] was 363 ppm and the “γ-Glu-Val-Gly content … of extract” value [3] was 1110 ppm. The “γ-Glu-Val-Gly content in dry cells” value [4] was 2647 ppm, the “γ-Glu-Val-Gly content … of extract” value [4] was 10119 ppm and the “γ-Glu-Val-Gly content in dry cells” value [5] was 5341 ppm. The “γ-Glu-Val-Gly content … of extract” value [5] was 17408 ppm, the “γ-Glu-Val-Gly concentration of extract” value (50 ppm γ-Glu-Val-Gly added after 19 hours, culture continued 1 hour, 400 OD units in 1.5 ml, solid content about 1%) was “about 300 ppm” and the “γ-Glu-Val-Gly content in dry cells” value [6] was 10191 ppm. For the same molecule, the “γ-Glu-Val-Gly content … of extract” value [6] was 32183 ppm and the “γ-Glu-Val-Gly content in dry cells” value (γ-Glu-Val-Gly 100 ppm added to SD medium in advance, culture 16 hours) was “about 20,000 ppm”.
